From paper PMC4182301, “Design, synthesis and SAR exploration of tri-substituted 1,2,4-triazoles as inhibitors of the annexin A2–S100A10 protein interaction” (Bioorganic & Medicinal Chemistry, 2014)
Where two headings read alike, the source gives them in different places.

Biological target: interaction between the AnxA2 N-terminus and S100A10 (Homo sapiens, UniProt P60903)
Assay: Fluorescence screening assay (FRET competitive binding, Cy3-AnxA2(Ac1–14) peptide / Cy5-S100A10)
Details: for pIC50 ± SE / IC50: FRET assay, 12 observations; for fold increase in potency compared to initial hit compound 1a: relative to 1a
Description: Assessment of compound activity was performed as described.[35] Briefly, a Cy5-labelled S100A10 tracer was developed and binding of a Cy3-labelled AnxA2(Ac1–14) peptide ligand was assessed using a fluorescence resonance energy transfer readout. Assays were carried out in Nunc black non-treated 384-well plates at 20 °C in 50 μL buffer C. All incubations were performed in quadruplicate. Compounds, peptide and buffer controls were added to the wells in a 10 μL volume in 5% DMSO. Cy5-labelled S100A10 tracer (407 nM) and Cy3-labelled AnxA2(Ac1–14) peptide ligand (1.33 μM) were pre-incubated for 5 min at 20 °C and 40 μL of the preformed complex was then added to the wells and mixed for 10 s to yield a final DMSO concentration of 1%. After 5 min incubation at 20 °C, readings were taken on a Perkin Elmer Envision plate reader by excitation at 488 nm and emission at 695 nm. Fluorescence resonance energy transfer (FRET) was calculated by subtracting the sum of the fluorescence emission of S100A10-Cy5 and AA2(1–14)-Cy3 individually from that measured for the co-incubated partners. Compound binding was calculated as percentage of non-treated control and data were analysed by non-linear regression (dose response—variable slope with bottom and top parameters fixed at 0% and 100%, respectively) using Graphpad Prism Software to determine the IC50 of binding (primary assay).

[1] = Table 1, read-out: pIC50 ± SE (converted)

interaction between the AnxA2 N-terminus and S100A10, sequence (P60903 whole entry, species assumed): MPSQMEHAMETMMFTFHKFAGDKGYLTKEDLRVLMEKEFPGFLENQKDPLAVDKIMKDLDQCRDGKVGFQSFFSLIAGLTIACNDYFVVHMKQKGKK

| Structure (SMILES) | pIC50 ± SE (Table 2) | IC50 (Table 2, read-out: IC50) [µM] | pIC50 ± SE (Table 1) | IC50 (Table 1, read-out: IC50) [µM] | further results |
| --- | --- | --- | --- | --- | --- |
| Cc1ccc(NC(=O)CSc2nnc(CSc3nc(C)cc(C)n3)n2Cc2ccco2)c(C)c1 [Compound 34, N-(2,4-Dimethyl-phenyl)-2-[5-(4,6-dimethyl-pyrimidin-2-ylsulfanylmethyl)-4-furan-2-ylmethyl-4H-[1,2,4]triazol-3-ylsulfanyl]-acetamide] | – | – | 4.83 ± 0.04 | 15 | – |
| C=CCn1c(CSc2nc(C)cc(C)n2)nnc1SCC(=O)Nc1ccc(C(F)(F)F)cc1 [Compound 50, 2-[4-Allyl-5-(4,6-dimethyl-pyrimidin-2-ylsulfanylmethyl)-4H-[1,2,4]triazol-3-ylsulfanyl]-N-(4-trifluoromethyl-phenyl)-acetamide] | 5.08 ± 0.04 | 8 | – | – | – |
| Cc1cc(C)nc(SCc2nnc(SCC(=O)Nc3nc(C)cs3)n2Cc2ccco2)n1 [Compound 29, 2-[5-(4,6-Dimethyl-pyrimidin-2-ylsulfanylmethyl)-4-furan-2-ylmethyl-4H-[1,2,4]triazol-3-ylsulfanyl]-N-(4-methyl-thiazol-2-yl)-acetamide] | – | – | 4.53 ± 0.06 | 30 | – |
| COCCCn1c(CSc2nc(C)cc(C)n2)nnc1SCC(=O)Nc1ccc(C(C)C)cc1 [Compound 47, 2-[5-(4,6-Dimethyl-pyrimidin-2-ylsulfanylmethyl)-4-(3-methoxy-propyl)-4H-[1,2,4]triazol-3-ylsulfanyl]-N-(4-isopropyl-phenyl)-acetamide] | 5.13 ± 0.04 | 7 | – | – | – |
| Cc1ccc(C)c(NC(=O)CSc2nnc(CSc3nc(C)cc(C)n3)n2Cc2ccco2)c1 [Compound 1a, N-(2,5-Dimethyl-phenyl)-2-[5-(4,6-dimethyl-pyrimidin-2-ylsulfanylmethyl)-4-furan-2-ylmethyl-4H-[1,2,4]triazol-3-ylsulfanyl]-acetamide] | – | – | – | 37 | IC50 [1]: 38 µM |
| Cc1cc(C)nc(SCc2nnc(SCCC(=O)Nc3ccc(C)c(C)c3)n2Cc2ccco2)n1 [Compound 45, N-(3,4-Dimethyl-phenyl)-3-[5-(4,6-dimethyl-pyrimidin-2-ylsulfanylmethyl)-4-furan-2-ylmethyl-4H-[1,2,4]triazol-3-ylsulfanyl]-propionamide] | 4.62 ± 0.03 | 24 | – | – | – |
| Cc1cc(C)nc(SCc2nnc(SCC(=O)Nc3cc(C(F)(F)F)cc(C(F)(F)F)c3)n2Cc2ccco2)n1 [Compound 38, N-(3,5-Bis-trifluoromethyl-phenyl)-2-[5-(4,6-dimethyl-pyrimidin-2-ylsulfanylmethyl)-4-furan-2-ylmethyl-4H-[1,2,4]triazol-3-ylsulfanyl]-acetamide] | – | – | 5.05 ± 0.03 | 9 | – |
| Cc1cc(C)nc(SCc2nnc(SCC(=O)Nc3ccc(C(F)(F)F)cc3)n2Cc2ccco2)n1 [Compound 37, 2-[5-(4,6-Dimethyl-pyrimidin-2-ylsulfanylmethyl)-4-furan-2-ylmethyl-4H-[1,2,4]triazol-3-ylsulfanyl]-N-(4-trifluoromethyl-phenyl)-acetamide] | – | – | 4.55 ± 0.07 | 28 | – |
| Cc1cc(C)nc(SCc2nnc(SCC(N)=O)n2Cc2ccco2)n1 [Compound 27, 2-[5-(4,6-Dimethyl-pyrimidin-2-ylsulfanylmethyl)-4-furan-2-ylmethyl-4H-[1,2,4]triazol-3-ylsulfanyl]-acetamide] | – | – | 3.75 ± 0.15 | 178 | – |
| COCCCn1c(C)nnc1SCC(=O)Nc1ccc(C(C)C)cc1 [Compound 66, N-(4-Isopropyl-phenyl)-2-[4-(3-methoxy-propyl)-5-methyl-4H-[1,2,4]triazol-3-ylsulfanyl]-acetamide] | – | – | – | – | pIC50 ± SE (Table 3): 3.79 ± 0.14; IC50 (Table 3, read-out: IC50): 164 µM; fold loss of activity on truncation of the 4,6-dimethylpyrimidin-2-ylsulfanyl side chain to methyl (relative to parent compound (64 vs 36, 65 vs 46, 66 vs 47)): 23 fold |
| C=CCn1c(CSc2nc(C)cc(C)n2)nnc1SCC(=O)Nc1ccc(C(C)C)cc1 [Compound 46, 2-[4-Allyl-5-(4,6-dimethyl-pyrimidin-2-ylsulfanylmethyl)-4H-[1,2,4]triazol-3-ylsulfanyl]-N-(4-isopropyl-phenyl)-acetamide] | 5.01 ± 0.03 | 10 | – | – | – |
| Cc1cc(C)nc(SCc2nnc(SCC(=O)Nc3cc(C)on3)n2Cc2ccco2)n1 [Compound 30, 2-[5-(4,6-Dimethyl-pyrimidin-2-ylsulfanylmethyl)-4-furan-2-ylmethyl-4H-[1,2,4]triazol-3-ylsulfanyl]-N-(5-methyl-isoxazol-3-yl)-acetamide] | – | – | 4.37 ± 0.07 | 43 | – |
| Cc1cc(C)nc(SCc2nnc(SCC(=O)Nc3ccc(C)c(C)c3)n2Cc2ccco2)n1 [Compound 35, N-(3,4-Dimethyl-phenyl)-2-[5-(4,6-dimethyl-pyrimidin-2-ylsulfanylmethyl)-4-furan-2-ylmethyl-4H-[1,2,4]triazol-3-ylsulfanyl]-acetamide] | – | – | 5.02 ± 0.04 | 10 | – |
| COCCCn1c(CSc2nc(C)cc(C)n2)nnc1SCC(=O)Nc1ccc(C)c(C)c1 [Compound 42, N-(3,4-Dimethyl-phenyl)-2-[5-(4,6-dimethyl-pyrimidin-2-ylsulfanylmethyl)-4-(3-methoxy-propyl)-4H-[1,2,4]triazol-3-ylsulfanyl]-acetamide] | 4.49 ± 0.04 | 32 | – | – | – |

Now from value to molecule, other results behind:

| pIC50 ± SE (Table 2) | IC50 (Table 2, read-out: IC50) [µM] | pIC50 ± SE (Table 1) | IC50 (Table 1, read-out: IC50) [µM] | Structure (SMILES) | further results |
| --- | --- | --- | --- | --- | --- |
| 5.07 ± 0.03 | 8 | – | – | Cc1cc(C)nc(SCc2nnc(SCC(=O)Nc3ccc(C(F)(F)F)cc3)n2-c2ccc(Cl)cc2)n1 [Compound 53, 2-[4-(4-Chloro-phenyl)-5-(4,6-dimethyl-pyrimidin-2-ylsulfanylmethyl)-4H-[1,2,4]triazol-3-ylsulfanyl]-N-(4-trifluoromethyl-phenyl)-acetamide] | – |
| – | – | 4.96 ± 0.04 | 11 | Cc1ccc(NC(=O)CSc2nnc(CSc3nc(C)cc(C)n3)n2Cc2ccco2)cc1 [Compound 33, 2-[5-(4,6-Dimethyl-pyrimidin-2-ylsulfanylmethyl)-4-furan-2-ylmethyl-4H-[1,2,4]triazol-3-ylsulfanyl]-N-p-tolyl-acetamide] | – |
| 4.23 ± 0.08 | 59 | – | – | Cc1cc(C)nc(SCc2nnc(SCC(=O)Nc3ccc(C)c(C)c3)n2-c2ccc(Cl)cc2)n1 [Compound 44, 2-[4-(4-Chloro-phenyl)-5-(4,6-dimethyl-pyrimidin-2-ylsulfanylmethyl)-4H-[1,2,4]triazol-3-ylsulfanyl]-N-(3,4-dimethyl-phenyl)-acetamide] | – |
| – | – | – | 53 | Cc1nnc(NC(=O)CSc2nnc(Cc3ccccc3)n2Cc2ccccc2)s1 [Compound 1b] | – |
| – | – | 4.63 ± 0.04 | 23 | Cc1cc(C)nc(SCc2nnc(SCC(=O)Nc3ccccc3)n2Cc2ccco2)n1 [Compound 31, 2-[5-(4,6-Dimethyl-pyrimidin-2-ylsulfanylmethyl)-4-furan-2-ylmethyl-4H-[1,2,4]triazol-3-ylsulfanyl]-N-phenyl-acetamide] | – |
| – | – | 4.76 ± 0.03 | 17 | Cc1cc(C)nc(SCc2nnc(SCC(=O)Nc3ccc(Cl)cc3)n2Cc2ccco2)n1 [Compound 39, N-(4-Chloro-phenyl)-2-[5-(4,6-dimethyl-pyrimidin-2-ylsulfanylmethyl)-4-furan-2-ylmethyl-4H-[1,2,4]triazol-3-ylsulfanyl]-acetamide] | – |
| 3.81 ± 0.03 | 154 | – | – | COc1ccc(NC(=O)CSc2nnc(CSc3nc(C)cc(C)n3)n2-c2ccc(OC)cc2)cc1 [Compound 56, 2-[5-(4,6-Dimethyl-pyrimidin-2-ylsulfanylmethyl)-4-(4-methoxy-phenyl)-4H-[1,2,4]triazol-3-ylsulfanyl]-N-(4-methoxy-phenyl)-acetamide] | – |
| – | – | – | 108 | COc1ccc(OCc2nnc(SC(C)C(=O)Nc3nccs3)n2-c2ccccc2)cc1 (stereo not shown) [Compound 1c] | IC50 [1]: 110 µM |
| 4.58 ± 0.04 | 27 | – | – | Cc1cc(C)nc(SCc2nnc(SCC(=O)Nc3ccc(C(C)C)cc3)n2-c2ccc(Cl)cc2)n1 [Compound 49, 2-[4-(4-Chloro-phenyl)-5-(4,6-dimethyl-pyrimidin-2-ylsulfanylmethyl)-4H-[1,2,4]triazol-3-ylsulfanyl]-N-(4-isopropyl-phenyl)-acetamide] | – |
| – | – | 5.14 ± 0.03 | 7 | Cc1cc(C)nc(SCc2nnc(SCC(=O)Nc3ccc(Br)cc3)n2Cc2ccco2)n1 [Compound 40, N-(4-Bromo-phenyl)-2-[5-(4,6-dimethyl-pyrimidin-2-ylsulfanylmethyl)-4-furan-2-ylmethyl-4H-[1,2,4]triazol-3-ylsulfanyl]-acetamide] | fold increase in potency compared to initial hit compound 1a: 5 fold |
| 5.35 ± 0.04 | 4 | – | – | COc1ccc(-n2c(CSc3nc(C)cc(C)n3)nnc2SCC(=O)Nc2ccc(C(F)(F)F)cc2)cc1 [Compound 52, 2-[5-(4,6-Dimethyl-pyrimidin-2-ylsulfanylmethyl)-4-(4-methoxy-phenyl)-4H-[1,2,4]triazol-3-ylsulfanyl]-N-(4-trifluoromethyl-phenyl)-acetamide] | fold increase in potency compared to initial hit compound 1a: 10 fold |
